Assay results published in ChEMBL document CHEMBL1201862, “PubChem BioAssay data set” (2004).
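Where inhibition never reached the appropriate level, the endpoint shown equals the highest concentration tested. Otherwise, values were interpolated linearly from a five-concentration, 48-hour dose response in 96-well plates. GI50: concentration for 50% inhibition of growth.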 The source made the active and inactive calls. Rule as the data show it: active = GI50 up to about 1.1 µM and inactive = higher.

How the values were obtained:
Experiment in all cases: NCI-60 cell line screen, 48 h
786-0 = system: 786-0
A549 = system: A549
ACHN = system: ACHN
CCRF-CEM = system: CCRF-CEM
HCT-116 = system: HCT-116
HCT-15 = system: HCT-15
HOP-92 = system: HOP-92
MOLT-4 = system: MOLT-4
SF-295 = system: SF-295
SK-MEL-2 = system: SK-MEL-2
SK-OV-3 = system: SK-OV-3
SNB-19 = system: SNB-19
SNB-75 = system: SNB-75
SW-620 = system: SW-620
T47D = system: T47D
TK-10 = system: TK-10
UACC-257 = system: UACC-257

SMILES | GI50 (786-0) | GI50 (A549) | GI50 (ACHN) | GI50 (CCRF-CEM) | GI50 (HCT-116) | GI50 (HCT-15) | GI50 (HOP-92) | GI50 (MOLT-4) | GI50 (SF-295) | GI50 (SK-MEL-2) | GI50 (SK-OV-3) | GI50 (SNB-19) | GI50 (SNB-75) | GI50 (SW-620) | GI50 (T47D) | GI50 (TK-10) | GI50 (UACC-257)
CC(C(=O)N1c2ccccc2Sc2ccccc21)N1c2ccccc2Sc2ccccc21 (centres undefined) | 88.1 µM (inactive) | > 100 µM (inactive) | > 100 µM (inactive) | 57.1 µM (inactive) | > 100 µM (inactive) | > 100 µM | 26.2 µM (inactive) | 42.9 µM (inactive) | 98.4 µM (inactive) | > 100 µM (inactive) | > 100 µM (inactive) | > 100 µM (inactive) | 96.4 µM (inactive) | > 100 µM (inactive) | 46.1 µM (inactive) | > 100 µM (inactive) | > 100 µM (inactive)
CNC(=S)N/N=C(\C)c1cc(OC)ccc1O | > 100 µM (inactive) | > 100 µM (inactive) | > 100 µM (inactive) | > 27.9 µM (inactive) | > 100 µM (inactive) | 63.1 µM | > 100 µM (inactive) | > 65.6 µM (inactive) | > 100 µM (inactive) | > 100 µM (inactive) | > 100 µM (inactive) | > 100 µM (inactive) | > 95.3 µM (inactive) | > 100 µM (inactive) | > 100 µM (inactive) | – | > 100 µM (inactive)
Cc1cccc(Nc2nn3c(=O)c4c5c(sc4nc3s2)CCCC5)c1 | 45.9 µM (inactive) | 14.8 µM (inactive) | 7.71 µM (inactive) | 56.5 µM (inactive) | 22.9 µM (inactive) | 6.41 µM | 26.4 µM (inactive) | 48.4 µM (inactive) | 3.08 µM (inactive) | > 100 µM (inactive) | 45.8 µM (inactive) | > 100 µM (inactive) | 23.2 µM (inactive) | 91.2 µM (inactive) | 9.82 µM (inactive) | 37.7 µM (inactive) | 21.5 µM (inactive)
O=C(c1cccc(F)c1F)N1CCc2c([nH]c3ccccc23)C1c1ccc2c(c1)OCO2 (centres undefined) | 22.5 µM (inactive) | 7.08 µM (inactive) | 18.8 µM (inactive) | 5.83 µM (inactive) | 8 µM (inactive) | 3.73 µM | 26.5 µM (inactive) | 5.24 µM (inactive) | 3.09 µM (inactive) | 4.2 µM (inactive) | 3.61 µM (inactive) | 7.76 µM (inactive) | 1.99 µM (inactive) | 9.71 µM (inactive) | 10.6 µM (inactive) | 22.5 µM (inactive) | 11.2 µM (inactive)
CCN1CCC(CNC(=O)c2ccc(N)cc2)N1CC (centres undefined) | > 100 µM (inactive) | > 100 µM (inactive) | > 100 µM (inactive) | > 100 µM (inactive) | > 100 µM (inactive) | > 100 µM | > 100 µM (inactive) | > 100 µM (inactive) | > 100 µM (inactive) | > 100 µM (inactive) | > 100 µM (inactive) | > 100 µM (inactive) | > 100 µM (inactive) | > 100 µM (inactive) | > 100 µM (inactive) | > 100 µM (inactive) | > 100 µM (inactive)
C=CC1(O)CCCC=C1COCc1ccccc1 (centres undefined) | > 100 µM (inactive) | > 100 µM (inactive) | 56 µM (inactive) | 43.6 µM (inactive) | 51.3 µM (inactive) | 65.8 µM | 52 µM (inactive) | 23.4 µM (inactive) | > 100 µM (inactive) | > 100 µM (inactive) | > 100 µM (inactive) | > 100 µM (inactive) | 61.4 µM (inactive) | – | 64 µM (inactive) | > 100 µM (inactive) | > 100 µM (inactive)
CCOC(=O)c1c(C)nc2c(c1-c1cn(-c3ccccc3)nc1-c1ccccc1)C(=O)c1ccccc1-2 | > 100 µM (inactive) | > 100 µM (inactive) | – | > 100 µM (inactive) | > 100 µM (inactive) | > 100 µM | > 100 µM (inactive) | > 100 µM (inactive) | > 100 µM (inactive) | > 100 µM (inactive) | > 100 µM (inactive) | > 100 µM (inactive) | > 100 µM (inactive) | > 100 µM (inactive) | > 100 µM (inactive) | > 100 µM (inactive) | > 100 µM (inactive)
COC1=C(Br)C(O)C2(C=C1Br)CC(C(=O)NCCCCNC(=O)C1=NOC3(C=C(Br)C(OC)=C(Br)C3O)C1)=NO2 (centres undefined) | 31.1 µM (inactive) | 30.6 µM (inactive) | 26.3 µM (inactive) | 10.1 µM (inactive) | 18.2 µM (inactive) | 49 µM | 26.2 µM (inactive) | – | 25.1 µM (inactive) | 23.7 µM (inactive) | 27.2 µM (inactive) | 37.3 µM (inactive) | 16.9 µM (inactive) | 37.1 µM (inactive) | 11.4 µM (inactive) | 65.3 µM (inactive) | 16.3 µM (inactive)
CN(C)c1cccc2c(S(=O)(=O)NCCN)cccc12 [DANSYL ETHYLENEDIAMINE] | > 100 µM (inactive) | > 100 µM (inactive) | > 100 µM (inactive) | > 100 µM (inactive) | 35.2 µM (inactive) | > 100 µM | > 100 µM (inactive) | > 100 µM (inactive) | > 100 µM (inactive) | > 100 µM (inactive) | > 100 µM (inactive) | > 100 µM (inactive) | 4.74 µM (inactive) | > 100 µM (inactive) | > 100 µM (inactive) | – | > 100 µM (inactive)
N/C(CSCCSC/C(N)=N/O)=N\O | > 100 µM (inactive) | > 100 µM (inactive) | > 100 µM (inactive) | > 100 µM (inactive) | > 100 µM (inactive) | > 100 µM | > 100 µM (inactive) | > 100 µM (inactive) | – | – | > 100 µM (inactive) | > 100 µM (inactive) | > 100 µM (inactive) | > 100 µM (inactive) | > 100 µM (inactive) | > 100 µM (inactive) | –
CCOC(=O)c1c(-c2ccc(OC)cc2)c(C#N)c(=S)n(C2OC(CO)C(O)C(O)C2O)c1C (centres undefined) | > 100 µM (inactive) | > 100 µM (inactive) | – | > 100 µM (inactive) | > 100 µM (inactive) | > 100 µM | > 100 µM (inactive) | > 100 µM (inactive) | > 100 µM (inactive) | > 100 µM (inactive) | > 100 µM (inactive) | > 100 µM (inactive) | > 100 µM (inactive) | > 100 µM (inactive) | > 100 µM (inactive) | > 100 µM (inactive) | > 100 µM (inactive)
Cn1c(=O)c2nc(CCNC(=O)c3ccccc3)[nH]c2n(C)c1=O | > 100 µM (inactive) | > 100 µM (inactive) | > 100 µM (inactive) | > 100 µM (inactive) | > 100 µM (inactive) | > 100 µM | > 100 µM (inactive) | > 100 µM (inactive) | > 100 µM (inactive) | > 100 µM (inactive) | – | > 100 µM (inactive) | > 100 µM (inactive) | > 100 µM (inactive) | > 100 µM (inactive) | > 100 µM (inactive) | > 100 µM (inactive)
